“And” between values parts separate entries of the source, which are not always exact repeats. Equal entries are not always repeated. After the bases stand the sugars from the 5' end (letter, count) and the backbone: PS all phosphorothioate, else s phosphorothioate and o phosphodiester by linkage. Methylation of C is not given here. e = 2'-O-(2-methoxyethyl) (MOE); d = 2'-deoxy (DNA)
Molecular target: DGAT2
Conditions: ASO

AACTCTGCCATTTAATGAGC (sugars e5 d10 e5, PS)
target mRNA inhibition (HepG2, 2.5 µM): 17% | target mRNA inhibition (HepG2, 10 µM): 53%

AACTGAGATCTCCAGCAGCA (sugars e5 d10 e5, PS)
target mRNA inhibition (HepG2, 2.5 µM): 91% and 78% | target mRNA inhibition (HepG2, 10 µM): 94% and 96%

AAGAGCTTCACCAGGGCCTC (sugars e5 d10 e5, PS)
target mRNA inhibition (HepG2, 0.12 µM): 44% | target mRNA inhibition (HepG2, 2.5 µM): 10% and 22% | target mRNA inhibition (HepG2, 10 µM): 83% | target mRNA inhibition (HepG2, 20 µM): 92%

AAGCCTCGGTGTCCTCTCCT (sugars e5 d10 e5, PS)
target mRNA inhibition (HepG2, 2.5 µM): 50% | target mRNA inhibition (HepG2, 10 µM): 87%

AAGGCACCTGTTACTACATG (sugars e5 d10 e5, PS)
target mRNA inhibition (HepG2, 2.5 µM): 67% | target mRNA inhibition (HepG2, 10 µM): 93%

AAGTAAGCCTCGGTGTCCTC (sugars e5 d10 e5, PS)
target mRNA inhibition (HepG2, 2.5 µM): 84% | target mRNA inhibition (HepG2, 10 µM): 69%

AAGTGAACCCTCACTTCCCA (sugars e5 d10 e5, PS)
target mRNA inhibition (HepG2, 0.12 µM): 35%

AATGCCAATGCCTAGGT (sugars e3 d10 e4, PS)
target mRNA inhibition (HepG2, 2.5 µM): 70% and 69% | target mRNA inhibition (HepG2, 10 µM): 81% and 82%

AATTTCCTTACAGGGTATTG (sugars e5 d10 e5, PS)
target mRNA inhibition (HepG2, 0.12 µM): 46%

ACAAAAGTCTGACATGGTGC (sugars e5 d10 e5, PS)
target mRNA inhibition (HepG2, 2.5 µM): 77% | target mRNA inhibition (HepG2, 10 µM): 78%

ACACACAATATCCATGGACT (sugars e5 d10 e5, PS)
target mRNA inhibition (HepG2, 2.5 µM): 68% | target mRNA inhibition (HepG2, 10 µM): 95%

ACAGCCCAGTTTCGGACCCA (sugars e5 d10 e5, PS)
target mRNA inhibition (HepG2, 0.12 µM): 27%

ACAGCGATGAGCCAGCA (sugars e3 d10 e4, PS)
target mRNA inhibition (HepG2, 2.5 µM): 45% | target mRNA inhibition (HepG2, 10 µM): 88%

ACAGGACCCACTGGAGCACT (sugars e5 d10 e5, PS)
target mRNA inhibition (HepG2, 0.12 µM): 79%

ACATATCCCCAACTGAAACA (sugars e5 d10 e5, PS)
target mRNA inhibition (HepG2, 0.12 µM): 21%

ACCAGCTGGATGGGAAAGTA (sugars e5 d10 e5, PS)
target mRNA inhibition (HepG2, 0.12 µM): 21%

ACCCCCTCAGGAAGGCACAG (sugars e5 d10 e5, PS)
target mRNA inhibition (HepG2, 0.12 µM): 25%

ACCTCACCTCCATACTGGCA (sugars e5 d10 e5, PS)
target mRNA inhibition (HepG2, 2.5 µM): 65% | target mRNA inhibition (HepG2, 10 µM): 86%

ACCTCGATGTTACATTAAGG (sugars e5 d10 e5, PS)
target mRNA inhibition (HepG2, 2.5 µM): 68% | target mRNA inhibition (HepG2, 10 µM): 90%

ACTATCACACCACCTCCCAC (sugars e5 d10 e5, PS)
target mRNA inhibition (HepG2, 2.5 µM): 2% | target mRNA inhibition (HepG2, 10 µM): 62%

ACTCCCACCTGAGTGCTGCA (sugars e5 d10 e5, PS)
target mRNA inhibition (HepG2, 2.5 µM): 92% | target mRNA inhibition (HepG2, 10 µM): 80%

ACTCCCAGTACAAGGAAGGA (sugars e5 d10 e5, PS)
target mRNA inhibition (HepG2, 0.12 µM): 3%

ACTGAGATCTCCAGCAGCAA (sugars e5 d10 e5, PS)
target mRNA inhibition (HepG2, 2.5 µM): 50% and 61% and 56% | target mRNA inhibition (HepG2, 10 µM): 90% and 93% and 92%

ACTGAGATGACCTGTAGCTG (sugars e5 d10 e5, PS)
target mRNA inhibition (HepG2, 0.12 µM): 33%

ACTGGTGCCTAAGAGCCCTA (sugars e5 d10 e5, PS)
target mRNA inhibition (HepG2, 2.5 µM): 77% | target mRNA inhibition (HepG2, 10 µM): 94%

ACTTCTTCTGGACCCATCGG (sugars e5 d10 e5, PS)
target mRNA inhibition (HepG2, 0.12 µM): 28%

AGACCACATGAAGTATCTAA (sugars e5 d10 e5, PS)
target mRNA inhibition (HepG2, 0.12 µM): 50%

AGAGGATGCTGGATCCAGTG (sugars e5 d10 e5, PS)
target mRNA inhibition (HepG2, 0.12 µM): 45%

AGAGGGTTCCATGGCACAAA (sugars e5 d10 e5, PS)
target mRNA inhibition (HepG2, 0.12 µM): 67%

AGATATAGTTCCTGGTGGTC (sugars e5 d10 e5, PS)
target mRNA inhibition (HepG2, 0.12 µM): 56%

AGCACAGCGATGAGCCA (sugars e3 d10 e4, PS)
target mRNA inhibition (HepG2, 2.5 µM): 58% | target mRNA inhibition (HepG2, 10 µM): 87%

AGCACAGCGATGAGCCAGCA (sugars e5 d10 e5, PS)
target mRNA inhibition (HepG2, 0.12 µM): 35%

AGCACTGAGATGACCTGTAG (sugars e5 d10 e5, PS)
target mRNA inhibition (HepG2, 0.12 µM): 36%

AGCACTTGATCTGGGACCCA (sugars e5 d10 e5, PS)
target mRNA inhibition (HepG2, 2.5 µM): 65% | target mRNA inhibition (HepG2, 10 µM): 94%

AGCAGGTTGTGTGTCTTCAC (sugars e2 d13 e5, PS)
target mRNA inhibition (HepG2, 0.12 µM): 44%

AGCAGGTTGTGTGTCTTCAC (sugars e3 d14 e3, PS)
target mRNA inhibition (HepG2, 0.12 µM): 63%

AGCATTGCCACTCCCATTCT (sugars e2 d13 e5, PS)
target mRNA inhibition (HepG2, 0.12 µM): 50%

AGCCAGGTAAGGCCGTATGC (sugars e3 d14 e3, PS)
target mRNA inhibition (HepG2, 0.12 µM): 51%

AGCCTCGGTGTCCTCTC (sugars e3 d10 e4, PS)
target mRNA inhibition (HepG2, 2.5 µM): 8% | target mRNA inhibition (HepG2, 10 µM): 90%

AGCGCAGAGCCCATCAGCCT (sugars e5 d10 e5, PS)
target mRNA inhibition (HepG2, 0.12 µM): 48%

AGCTCAGAGACTCAGCCGCA (sugars e5 d10 e5, PS)
target mRNA inhibition (HepG2, 2.5 µM): 38% and 44% and 55% | target mRNA inhibition (HepG2, 10 µM): 78% and 86% | target mRNA inhibition (HepG2, 20 µM): 89% and 97%

AGCTGCAAGGATGACCTTGG (sugars e5 d10 e5, PS)
target mRNA inhibition (HepG2, 2.5 µM): 52% | target mRNA inhibition (HepG2, 10 µM): 34%

AGCTGCTTTTCCACCTTGGA (sugars e2 d16 e2, PS)
target mRNA inhibition (HepG2, 0.12 µM): 45%

AGCTGGATGGGAAAGTAGTC (sugars e5 d10 e5, PS)
target mRNA inhibition (HepG2, 0.12 µM): 31%

AGCTTGGTGAATAGCTATGT (sugars e5 d10 e5, PS)
target mRNA inhibition (HepG2, 2.5 µM): 75% and 68% | target mRNA inhibition (HepG2, 10 µM): 93% and 92%

AGGACAGAGGTTCAACATCC (sugars e5 d10 e5, PS)
target mRNA inhibition (HepG2, 0.12 µM): 53%

AGGACCCACTGGAGCAC (sugars e3 d10 e4, PS)
target mRNA inhibition (HepG2, 2.5 µM): 42% | target mRNA inhibition (HepG2, 10 µM): 93%

AGGACCCACTGGAGCACTGA (sugars e3 d14 e3, PS)
target mRNA inhibition (HepG2, 0.12 µM): 82% | target mRNA inhibition (HepG2, 2.5 µM): 16% | target mRNA inhibition (HepG2, 10 µM): 38% | target mRNA inhibition (HepG2, 20 µM): 53%

AGGACCCCGGAGTAGGCGGC (sugars e2 d13 e5, PS)
target mRNA inhibition (HepG2, 0.12 µM): 81% | target mRNA inhibition (HepG2, 10 µM): 85%

AGGATGAACTAAATCCACCA (sugars e5 d10 e5, PS)
target mRNA inhibition (HepG2, 2.5 µM): 62% | target mRNA inhibition (HepG2, 10 µM): 90%

AGGATGCTTAACTTCTGCTG (sugars e5 d10 e5, PS)
target mRNA inhibition (HepG2, 2.5 µM): 82% | target mRNA inhibition (HepG2, 10 µM): 76%

AGGCAGATGGACAGGTGATT (sugars e5 d10 e5, PS)
target mRNA inhibition (HepG2, 2.5 µM): 54% | target mRNA inhibition (HepG2, 10 µM): 92%

AGGCATGCTTCCTCCCA (sugars e3 d10 e4, PS)
target mRNA inhibition (HepG2, 2.5 µM): 73% | target mRNA inhibition (HepG2, 10 µM): 49%

AGGCATGGAGCTCAGAGACT (sugars e2 d13 e5, PS)
target mRNA inhibition (HepG2, 0.12 µM): 78%

AGGCCCCTTCTGAAGAGGGA (sugars e5 d10 e5, PS)
target mRNA inhibition (HepG2, 0.12 µM): 43%

AGGCCTCGGGAAGCACCTGG (sugars e5 d10 e5, PS)
target mRNA inhibition (HepG2, 2.5 µM): 39% | target mRNA inhibition (HepG2, 10 µM): 84%

AGGCTCTGGTTCCATGCTCT (sugars e5 d10 e5, PS)
target mRNA inhibition (HepG2, 2.5 µM): 61% | target mRNA inhibition (HepG2, 10 µM): 79%

AGGCTGAGTTCTGCTCCTGG (sugars e5 d10 e5, PS)
target mRNA inhibition (HepG2, 2.5 µM): 72% | target mRNA inhibition (HepG2, 10 µM): 78%

AGGGAAGCATGTGCAGCCTA (sugars e5 d10 e5, PS)
target mRNA inhibition (HepG2, 2.5 µM): 72% and 66% | target mRNA inhibition (HepG2, 10 µM): 87% and 90%

AGGTTAGCTGAGCCACCCAG (sugars e5 d10 e5, PS)
target mRNA inhibition (HepG2, 0.12 µM): 59%

AGGTTGTGTGTCTTCACCAG (sugars e5 d10 e5, PS)
target mRNA inhibition (HepG2, 0.12 µM): 59% and 74%

AGTAAGGGTATTCTGCTCAT (sugars e5 d10 e5, PS)
target mRNA inhibition (HepG2, 2.5 µM): 87% | target mRNA inhibition (HepG2, 10 µM): 77%

AGTCCAAACACTCAGGTAGG (sugars e5 d10 e5, PS)
target mRNA inhibition (HepG2, 2.5 µM): 66% | target mRNA inhibition (HepG2, 10 µM): 79%

Reference: the OligoGym collection
